The text below walks through data of PMC6580715 (Clinical Medicine Insights. Endocrinology and Diabetes, 2019).

No end group written: not given here.

In one data set the test system is 1.1B4 beta-cells. Briefly: Beta-cell proliferation, Ki-67 staining, 1.1B4. The class given is cell-based, human. The conditions noted are these: 1.1B4, 10^-8 and 10^-6 M, n = 3.
Data set [1] relates to BRIN-BD11 beta-cells. Kind of data set: Beta-cell proliferation, Ki-67 staining, BRIN-BD11. The class given is cell-based, rodent. The conditions noted are these: BRIN BD11, 10^-8 and 10^-6 M, n = 3.
In data set [2] the test system is BRIN-BD11 beta-cells. Briefly: In vitro insulin secretion from BRIN-BD11 beta-cells. The class given is cell-based, rodent. The conditions noted are these: peptides 10^-12-10^-6 M, 20-minute incubation, insulin radioimmunoassay, n = 8, vs 16.7 mM glucose.
Data set [3] deals with BRIN-BD11 beta-cells. Kind of data set: Protection against cytokine-induced apoptosis, TUNEL, BRIN-BD11. It is filed as cell-based, rodent. The conditions noted are these: n = 3.
The subject of another data set is DPP-4. Kind of data set: 50 mM triethanolamine/HCl. The conditions noted are these: 37°C, up to 8 hours.

As to “GLP-1: GLP-1 positive control (HAEGTFTSDVSSYLEGQAAKEFIAWLVKGR; ends and bridges not checked; UniProt P01275 98-127, looked up) [reference compound]”, the “beta-cell proliferation vs control cultures” value in the data set on 1.1B4 beta-cells and with BRIN-BD11 beta-cells [1] was “significantly (P < .05 to P < .001) increased” each time.

For “YPIKPEAPGEDK(PAL)SPEELNRYYASLRHYLNLVTRQRY [PYY(1-36)(Lys^12PAL)]”, the “beta-cell proliferation vs control cultures” value in the data set with 1.1B4 beta-cells is recorded as “significantly increased (P < .05 to P < .01) the proliferation of both beta-cell lines”. Also, in the data set on BRIN-BD11 beta-cells [2], the “insulin secretion at 16.7 mM glucose (GSIS)” value was “had no impact on GSIS”. For the same substance, the “cytokine-induced apoptosis vs cytokine cocktail control” value in the data set with BRIN-BD11 beta-cells [3] (BRIN BD11, 10^-8 M only, cytokine cocktail) is on record as “barring PYY(1-36)(Lys^12PAL) at 10^-8 M”; in the data set on BRIN-BD11 beta-cells [3] (BRIN BD11, 10^-8 and 10^-6 M, cytokine cocktail (IL-1β, IFNγ, TNFα)), “offered some protection against apoptosis”. Moreover, in the data set on BRIN-BD11 beta-cells [3] (BRIN BD11, same concentration, cytokine cocktail), the “protection against apoptosis compared with PYY(1-36)” value is “significantly (P < .05 to P < .01) less efficacious”.

In the case of “YPIKPEAPGEDK(PAL)SPEELNRYYASLRHYLNLVTRQRY”, the fragment found entry in the data set with DPP-4 was “PYY(3-36)(Lys^12PAL), 8 h”.
